Results as given in patent US5196410A, “Transdermal flux enhancing compositions” (priority 1991, dated 1993).
≈ marks a conversion by molar mass, not a printed value. Structures can show the parent of a compound that is named as a salt. Where two headings read alike, the source gives them in different places. Each block holds one compound with its values, some of them ahead of it.

Columns and labels:
[1] = Saturation concentration of drug in vehicle
[2] = cited from earlier work
[3] = Infrared spectra of fatty acid treated porcine stratum corneum; details: C-H antisymmetric stretching; stratum corneum treated with […] fatty acid in ethanol, 30% (w/w) water
Procedure: (§1) Stratum corneum sheets were prepared from porcine skin by trypsin treatment. Thus, full thickness porcine skin samples were dermatomed to 350 μm thickness and spread, stratum corneum side up, on filter paper saturated with 0.5% crude trypsin in phosphate buffered saline at pH 7.4 (Sorensen's buffer). After several hours at 37° C. the stratum corneum was peeled away, washed in soybean trypsin inhibitor, water and air dried. Samples were stored desiccated at room temperature until used. Prior to use, dry skin samples of known weight were incubated for two hours in an 0.15M solution of the appropriate fatty acid in ethanol, the samples were then washed for ten seconds in ethanol, spread on wire mesh, dried over a desiccant and the dry sample reweighed. The stratum corneum samples were then held for several days in a chamber at 22° C., 95% relative humidity, during which the stratum corneum samples equilibrated to a water content of 30% (w/w).
Infrared spectra were obtained with a Fourier Transform Infrared Spectrometer^4 (FTIR) equipped with a liquid nitrogen cooled mercury-cadmium telluride detector. In order to prevent water loss, hydrated samples were sealed between zinc sulfide windows while maintained at 22° C., 95% relative humidity. Sealed samples were placed in the spectrometer where an average of 127 scans were obtained in about six minutes for each of the fatty acid treatments. The digitized data were transferred to a computer (Apple IIe) for determination of frequency and bandwidth of the C--H antisymmetric stretching absorbance. Due to the digital nature of the FTIR instrument, absorbance and frequency data exist only in discrete increments. With the instrument used, the exact value of any frequency point could only be determined with a precision not greater than 2.7 cm^-1. The peak frequency was estimated with much greater precision, however, using a center of gravity algorithm for digitized data reported by Cameron et al., Applied Spectr., 36 245-250 (1982).

[4] = assay type: in vitro ADME, porcine
Procedure: Samples were removed periodically from the receiver side of the diffusion cell, mixed with a Z0 scintillation cocktail (Scintisol, Isolabs, Inc., Akron, OH) and counted for several minutes in a liquid scintillation counter (Model Mark III-6881, Tracor Analytical, Elk Grove Village, IL). Following an initial lag time of about 6 hours, the amount of
salicylic acid appearing in the receiver side was linear with time for the duration of the experiment (routinely 24 to 48 hours). […] This value, when divided by the specific acitivity of salicyclic acid in the saturated solution (approximately 300 dpm/mg) and the area of exposed skin (0.2 cm^2), yielded the flux (mg/cm^2/ hr). Samples removed from the donor side at the beginning and end of the experiment contained, within error, the same amount of salicylic acid. Thus, constant concentration of the permeant was maintained on the donor side throughout the experiment.

[5] = Differential scanning calorimetry of fatty acid treated porcine stratum corneum; details: stratum corneum treated with […] fatty acid in ethanol, 30% (w/w) water
Procedure: as §1
The differential scanning calorimeter^5 was used at a scan rate of 0.75° C./minute. Duplicate samples from each of the above FTIR experiments were combined for DSC measurements. Alternately, stratum corneum samples of known weight (about 20 mg) were treated with each fatty acid in the same manner described above. Treated samples were hydrated for several days at 95% R.H., 22° C. and reweighed.

- solubility ([1]; 30% ethanol/acetate buffer, pH 5, organic solvent or mixture): 8.95 mg/mL
Compound: COc1cc2nc(N3CCN(C(=O)C4COc5ccccc5O4)CC3)nc(N)c2cc1OC (stereo not drawn) [doxazosin mesylate]

Compound: CCCCCCCCCCCCN1CCCCCC1=O [Azone, 1-dodecylazacycloheptan-2-one]
- ability to enhance percutaneous penetration ([2]; Stoughton, Arch. Derm.): ability to enhance percutaneous penetration
- enhancement of dermal penetration ([2]; flurbiprofen in propylene glycol and other solvents): enhance dermal penetration

- Flux of Salicylic Acid [4]: 0.97 mg/cm^2 /hr
Compound: CCCCCCCCCCC/C=C/CCCCC(=O)O [Petroseladic]
- Peak IR Frequency [3]: 2919.0 cm⁻¹
- DSC Tm (temperature of the transition maximum) [5]: 62.0 °C

Compound: O=C(O)c1ccccc1O [Salicylic acid, salicylic acid]
- solubility ([1]; ethanol, organic solvent or mixture): 310 mg/mL (≈ 2240 mM)
- initial lag time ([4]; salicylic acid in receiver, 32° C.): about 6 hours
- Flux of Salicylic Acid ([4]; saturated salicylic acid in ethanol, no fatty acid (ethanol control), 32° C.): 1.31 mg/cm^2 /hr
